Patent publication US20260034094A1, “COMPOSITIONS AND METHODS FOR INDUCING FERROPTOSIS” (Kojin Therapeutics, Inc., priority 2022, published 2026)

Experiments:
solid tumor animal model = assay: Microdosing tumors with ferroptosis-inducing agents (implantable drug delivery system, cleaved caspase-3 / H&E staining); assay type: in vivo, C57BL6/J mice; settings: for tumor response (cleaved caspase-3 staining: cell death, white blood cell recruitment): local sustained administration, 1-10 μM at the tumor site, 24 hours
Description: For the allograft study, cancer cell line-derived tumor cells were injected into the flanks of male C57BL6/J mice. Assays were initiated when the tumor diameter was approximately 6-7 mm.
Microdose drug delivery was performed for the assay described herein. The compounds in Table 22 were packed into device reservoirs using a tapered metal needle. Reservoirs were loaded for initial release of liproxstatin-1 (where included) followed by a 4-6 h delayed release of ferroptosis inducers. Devices were prepared for dose administration into mouse tumors. Devices delivered the ferroptosis inducing agent for 24-72 hours in the tissue. The tumor was then excised, and the tissue was snap frozen with liquid nitrogen. Tissue was sectioned using a standard cryotome, and tissue slices of 20 μm in thickness were collected from each reservoir for analysis by immunoassays, transcriptomics, and metabolomic assays.
A drug delivery system was applied to a: solid tumor animal model. Animals were administered (1) L-BSO or (2) L-BSO+liproxstatin-1 (lip-1) as a ferroptosis-rescue agent. Drugs were loaded into an implantable drug delivery system to achieve concentrations of 1-10 μM for both BSO+lip-1 at the tumor site. After 24 hours, tumors were removed and stained for cleaved caspase-3 to indicate cell death in the tumor (FIG. 2A). […] Therefore, ferroptosis can be induced by both local and systemic administration of BSO.
A drug delivery system was applied to a: solid tumor animal model. Animals were administered (1) ML-210 or (2) ML-210+liproxstatin-1 (lip-1), as a ferroptosis rescue agent. Drugs were loaded into an implantable drug delivery system to achieve concentrations of 1-10 μM for both ML-210 and ML-210+liproxstatin-1 (lip-1) at the tumor site. After 24 hours, tumors were removed and stained for cleaved caspase-3.
To achieve therapeutic doses of RSL3 in vivo, a drug delivery system was applied to a: solid tumor animal model. Animals were administered (1) RSL3 or (2) RSL3+liproxstatin (lip-1) as a ferroptosis rescue agent. Drugs were loaded into an implantable drug delivery system to achieve concentrations of 1-10 μM for both RSL-3 and RSL3 and lip-1 co-administration at the tumor site. After 24 hours of sustained administration, tumors were removed and stained for cleaved caspase-3 (FIG. 5A). Dashed lines indicate region of drug exposure.

cancer cells = assay: Cell line profiling with a ferroptosis-inducing agent with and without a rescue agent (CellTiter-Glo); assay type: cell-based, human; settings: for fractional viability of cancer cells with fer-1 co-treatment: +1.5 μM fer-1
Description: Cell viability assays are performed by seeding 1,000 cells per well (30 μl volume) in opaque white 384-well plates (Corning). Cells are allowed to adhere for 24 h, after which they are exposed to compounds for 72 hours. DMSO stock solutions of compounds are added to cells using a CyBio Well Vario liquid dispenser (Analytik Jena AG). Cellular ATP levels are measured using CellTiter-Glo (Promega) as a surrogate for viability. Rescue assays are performed using rescue agents-ferrostatin-1 (fer-1, 1.5 μM), liproxstatin-1 (lip-1, 1 μM), deferoxamine (DFO, 50 μM), and other ferroptosis inhibitors added to cells at the time of addition to assay plates. Dose-response curves for BSO and RSL3 are shown in FIG. 4 with and without anti-ferroptosis rescue agent treatment (indicated as no treatment or +1.5 μM fer-1).

human recombinant GCL = human recombinant GCL (Homo sapiens (Human), UniProt P48506); assay: GCL enzyme profiling assay (ADP-Glo luminescence); assay type: biochemical; settings: human recombinant GCL, ADP-Glo; read-out: GCL IC50
human recombinant GCL, sequence (P48506 whole entry): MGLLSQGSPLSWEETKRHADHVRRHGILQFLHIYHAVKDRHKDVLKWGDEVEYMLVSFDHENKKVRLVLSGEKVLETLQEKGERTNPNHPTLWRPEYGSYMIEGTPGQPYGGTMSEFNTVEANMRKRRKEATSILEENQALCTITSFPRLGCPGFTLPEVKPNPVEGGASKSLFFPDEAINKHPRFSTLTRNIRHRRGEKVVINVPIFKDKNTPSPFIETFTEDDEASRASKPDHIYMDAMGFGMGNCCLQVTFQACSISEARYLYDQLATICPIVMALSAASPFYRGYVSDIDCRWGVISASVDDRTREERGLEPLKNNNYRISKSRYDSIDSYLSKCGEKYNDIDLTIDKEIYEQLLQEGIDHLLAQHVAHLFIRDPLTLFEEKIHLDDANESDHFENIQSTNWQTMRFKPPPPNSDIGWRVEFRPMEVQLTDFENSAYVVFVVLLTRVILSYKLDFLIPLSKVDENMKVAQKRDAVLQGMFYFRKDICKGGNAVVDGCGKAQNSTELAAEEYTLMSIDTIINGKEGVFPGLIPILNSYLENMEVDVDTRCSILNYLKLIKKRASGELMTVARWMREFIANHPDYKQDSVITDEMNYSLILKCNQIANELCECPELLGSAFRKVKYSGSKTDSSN
Summary of the method: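 ADP-Glo luminescence readout; 5 nM enzyme preincubated 1 h at 22 °C with 0.6 mM ATP, then started with 1 mM glutamate and 1.2 mM α-aminobutyrate, stopped after 2 h. Buffer: HEPES pH 7.5, MgCl2, DTT, BSA, 0.2% F-127, 1% DMSO. IC50 from four-parameter logistic fit.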

RKN cells = assay: RKN cell profiling assay (cell viability, CellTiter-Glo); assay type: cell-based; settings: cell viability, read-out: Cell Killing EC50
Summary of the method: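 Cells seeded at 1,000/well in F-12 with 10% FBS, left to adhere 24 h, then compound-treated for 96 h at 0.5% final DMSO. Viability by CellTiter-Glo luminescence; EC50 from four-parameter logistic fit. Ferroptosis rescue runs included 1.5 μM ferrostatin-1 added at seeding.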

SMILES	tumor response (cleaved caspase-3 staining: cell death, white blood cell recruitment) (solid tumor animal model)	fractional viability of cancer cells with fer-1 co-treatment (cancer cells)	also measured
Cc1onc(C(=O)N2CCN(C(c3ccc(Cl)cc3)c3ccc(Cl)cc3)CC2)c1[N+](=O)[O-] [ML-210]	recruitment of white blood cells to the tumor indicating immune cell recruitment and cell death at the tumor site		
COC(=O)c1ccc([C@H]2c3[nH]c4ccccc4c3C[C@H](C(=O)OC)N2C(=O)CCl)cc1 [RSL3, (1S,3R)-RSL3]	White blood cell recruitment and cell death were prominent	reduction in the fractional viability of cancer cells	ferroptosis induction (cancer cells; dose-response, with and without 1.5 μM fer-1): robust inducer of ferroptosis
CCCCS(=N)(=O)CC[C@H](N)C(=O)O (stereo partly shown) [BSO, buthionine sulfoximine]	recruitment of white blood cells to the tumor indicating immune cell recruitment and cell death at the tumor site	not observed	fractional viability of tumor (solid tumor animal model; compared with BSO+fer-1 treated sections of the tumor): significant reductions in fractional viability
CCOC(=O)c1ccc(NC2CCCCC2)c(N)c1 [Ferrostatin-1, ferrostatin-1]			rescue from cell death (cancer cells; RSL3 and BSO treated tumors in vivo, 1.5 μM fer-1): prevents cell death
N=S(=O)(CCC(n1ccc(-c2cccnc2)n1)C(F)(F)F)CC[C@H](N)C(=O)O (stereo partly shown) [Compound 414]			IC50 (human recombinant GCL): 20 to 2000 µM; EC50 (RKN cells): ≥ 1000 µM
